Like-named read-outs stand apart in the source and are kept apart here. Ends that are not written are not given here.
What was measured:
[1] = Peptidase activity of desalted fecal protein extracts against 33-mer, 19-mer and 13-mer gliadin peptides (HPLC); format: in vitro ADME, human; conditions: for Degradation of peptide by meconium protein extract / Degradation of peptide by fecal protein extract: 0.8 mg/mL extract; for Degradation of peptide by meconium protein extract / Degradation capacity of new-born fecal samples against peptide / Degradation of peptide by feces samples / Degradation of peptide by fecal protein extract: 60 μM peptide, 37 °C; for Degradation of peptide by meconium protein extract: reverse-phase HPLC, UV 215 nm; for Degradation capacity of new-born fecal samples against peptide: in some cases intermediate peptides observed; for Degradation of peptide by feces samples: up to 12 month-olds; for Degradation of peptide by fecal protein extract: HPLC UV 215 nm
Description: Step 1: Sample preparation: Fecal samples were homogenized by mechanical stirring (90 min) in 10 mM Tris-HCl, pH 7.5 (1:5 w/v) and centrifuged (3100× g, 30 min). The supernatant was re-centrifuged at 30,000× g for 20 min.
Step 2: Ammonium sulphate fractionation: Each supernatant obtained from step 1 was precipitated with ammonium sulphate. The 80% ammonium sulphate precipitate (containing glutenase activity) was collected by centrifugation at 30,000× g, 20 min. The pellet was dissolved in 10 mM Tris-HCl (pH 7.5) and ammonium sulphate was eliminated by passing through a Sephadex G-25 (PD-10) column (GE Healthcare Live Sources, San Diego, CA USA) equilibrated with Tris-ClH (pH 5) in accordance with manufacturer’s indications.
Peptides used in this paper were: 33-mer ([…]), 19-mer (LGQQQPFPPQQPYPQPQPF), and 13-mer (LGQQQPFPPQQPY) synthetized by Bionova Científica, S.L. (Madrid, Spain) with purification grade around 96%.
We assayed 33-mer, 19-mer, and 13-mer hydrolysis as described previously, with modifications. Briefly, reaction mixtures containing 0.8 mg/mL of desalted protein extract (see step 2.2), 33-, 19-, or 13-mer peptide (60 μM) were incubated at 37 °C for 60 min and then stopped by boiling at 100 °C. 10-µL of each filtered aliquot was subjected to reverse-phase HPLC. The elution phases consisted of (A) MilliQ H2O containing 0.1% trifluoroacetic acid (TFA) (v/v) and (B) acetonitrile and 0.1% TFA (v/v). The eluate was monitored by measuring UV absorbance at 215 nm. Negative controls included runs with proteins denatured by boiling for 15 min, or 33-, 19-, and 13-mer peptides assayed without protein extract.

[2] = test system: elastase 3B, elastase 2A, and carboxypeptidase A1; conditions: cited from earlier work
[3] = elastase 3B, elastase 2A, and carboxypeptidase A1 from human feces

Row | Hydrolytic activity of meconium samples against peptide ([1]; all 21 meconium samples, HPLC) | Degradation of peptide by meconium protein extract ([1]; desalted meconium protein extract of newborn volunteer 15, 60 min, intermediate peptides generated) | Degradation of peptide by meconium protein extract ([1]; desalted meconium protein extracts of newborn volunteers 3 and 9, 60 min) | Degradation capacity of new-born fecal samples against peptide ([1]; 60 min, HPLC) | Degradation of peptide by feces samples ([1]; 60 min, HPLC) | Degradation of peptide by fecal protein extract ([1]; volunteers 0–2 months old, 60 min) | Degradation of peptide by fecal protein extract ([1]; volunteers 2–6 months old, 60 min) | Degradation of peptide by fecal protein extract ([1]; volunteers over 48 months old, 1 h) | Degradation of peptide by fecal protein extract ([1]; volunteers >300 months old (the only group that did not degrade it completely), 60 min) | Sequence | Hydrolysis of peptide by gastrointestinal proteases [2, 3] | Hydrolysis of peptide by gastrointestinal proteases [2]
1 | showed hydrolytic activity | only partially degraded | completely degrade | total degradation | able to degrade | completely degrade | completely degrade | unable to completely degrade |  | LQLQPFPQPQLPYPQPQLPYPQPQLPYPQPQPF [33-mer] | partially | 
2 |  |  |  |  |  |  |  |  |  | LGQQQPFPPQQPYPQPQPF [19-mer] |  | fully
3 |  |  |  | total degradation | able to degrade |  |  |  | not able to complete degrade | LGQQQPFPPQQPY [13-mer] | fully | 

Source: paper PMC7589136, “The Human Digestive Tract Is Capable of Degrading Gluten from Birth” (International Journal of Molecular Sciences, 2020)
